Patent publication US12351581B2, “Compounds for FGFR inhibition” (Cogent Biosciences, Inc., priority 2023, dated 2025)
Where two headings read alike, the source gives them in different places.

Legend:
FGFR2 = target: T1, FGFR2 (Homo sapiens, UniProt P21802); assay: FGFR wild type enzyme assay (HTRF KinEASE-TK); type: biochemical; conditions: ATP 2 uM
T1 construct: biochemical assays using purified intracellular domains of the respective isoforms; purchased Carna Bioscience 08-134
Method: (§1) Activity against FGFR wild type and mutant enzymes were determined in biochemical assays using purified intracellular domains of the respective isoforms using HTRF KinEASE-TK assay technology from CisBio, now PerkinElmer. (Catalogue number 62TK0PEC). Briefly test compounds were tested in 11 point 1:3 serial dilutions, typical final concentration range from 10,000 nM to 0.17 nM. Test compounds were dissolved in DMSO and added to assay plates using acoustic transfer. Enzyme was pre-incubated with test compound for 30 minutes and the assay was initiated by addition of ATP and TK-peptide substrate. After 60 minutes at room temperature the reaction was quenched with detection reagent and incubated for an additional 60 minutes at room temperature. The plates were read using a multimode reader and the emission ratio of 665 nm to 615 nm was determined. This ratio was converted to percent of control (POC). [1-(high control-sample signal)/(high control-low control)]*100. Wells without compound were used to determine high control values and wells without enzyme were used to determine low control values. The POC values were fit using a four-parameter logistic model and the value where the fit curve was equal to 50 POC was reported as the IC50 using the Signals Vitro Vivo software package (PerkinElmer). Final assay conditions were: 50 mM HEPES pH7.5, 10 mM MgCl2, 1 mM EDTA, 0.01% Brij-35, 2 mM MnCl2, 1 mM DTT, and 0.5 uM TK-peptide. The enzyme source, catalogue number, final enzyme concentration, and final ATP concentration can be found in the tables 1-2 below.

FGFR2 N549H = target: T2, FGFR2 N549H (Homo sapiens, UniProt P21802, N549H); assay: FGFR mutant enzyme assay (HTRF KinEASE-TK); type: biochemical; conditions: ATP 0.9 uM
T2 construct: biochemical assays using purified intracellular domains of the respective isoforms; purchased Carna Bioscience 08-532
T2 sequence (P21802 399-821 N549H limits assumed): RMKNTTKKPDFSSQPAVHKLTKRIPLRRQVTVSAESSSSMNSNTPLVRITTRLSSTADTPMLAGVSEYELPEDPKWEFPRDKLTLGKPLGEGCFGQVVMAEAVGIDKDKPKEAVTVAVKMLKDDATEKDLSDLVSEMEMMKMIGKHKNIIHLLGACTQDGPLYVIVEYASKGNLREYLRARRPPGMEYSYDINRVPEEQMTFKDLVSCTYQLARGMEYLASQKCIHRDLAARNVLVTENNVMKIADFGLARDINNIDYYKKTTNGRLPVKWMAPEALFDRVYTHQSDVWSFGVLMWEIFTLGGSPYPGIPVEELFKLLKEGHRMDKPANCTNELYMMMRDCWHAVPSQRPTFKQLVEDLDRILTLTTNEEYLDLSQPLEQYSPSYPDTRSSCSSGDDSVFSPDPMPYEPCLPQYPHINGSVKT
Method: as §1

FGFR2 V564I = target: T3, FGFR2 V564I (Homo sapiens, UniProt P21802, V564I); assay: FGFR mutant enzyme assay (HTRF KinEASE-TK); type: biochemical; conditions: ATP 0.4 uM
T3 construct: biochemical assays using purified intracellular domains of the respective isoforms; purchased Carna Bioscience 08-546
T3 sequence (P21802 399-821 V564I limits assumed): as the sequence (P21802 399-821 N549H limits assumed) above, with H151N, V166I counted along it
Method: as §1

FGFR2 V564F = target: T4, FGFR2 V564F (Homo sapiens, UniProt P21802, V564F); assay: FGFR mutant enzyme assay (HTRF KinEASE-TK); type: biochemical; conditions: ATP 1.5 uM
T4 construct: biochemical assays using purified intracellular domains of the respective isoforms; purchased SignalChem Biotech F05-12FG
T4 sequence (P21802 399-821 V564F limits assumed): as the sequence (P21802 399-821 N549H limits assumed) above, with H151N, V166F counted along it
Method: as §1

FGFR2-WT = FGFR2-WT (Homo sapiens, UniProt P21802); assay: Phosphorylated FGFR2-WT (pFGFR2-WT) cell assay, KATOIII cells; type: cell-based; conditions: 1 hour incubation, phospho FGFR2 HTRF
Chain of FGFR2-WT (P21802 430-767 limits assumed): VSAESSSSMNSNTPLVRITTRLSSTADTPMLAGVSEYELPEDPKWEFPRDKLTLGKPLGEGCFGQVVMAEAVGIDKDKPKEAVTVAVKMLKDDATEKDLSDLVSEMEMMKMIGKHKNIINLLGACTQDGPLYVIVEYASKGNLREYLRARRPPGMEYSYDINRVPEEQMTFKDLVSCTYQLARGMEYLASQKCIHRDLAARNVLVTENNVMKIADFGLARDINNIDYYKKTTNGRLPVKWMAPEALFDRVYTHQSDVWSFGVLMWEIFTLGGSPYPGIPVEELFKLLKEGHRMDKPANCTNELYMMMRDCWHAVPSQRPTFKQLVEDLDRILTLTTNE
Method: KATOIII cells were grown in the appropriate growth medium, IMDM supplemented with 20% fetal bovine serum. Cells were seeded into a 384-well at 1×10^5 cells/25 μL/well. Cells were treated with compound using three-fold serial dilutions at final concentrations ranging from 10 μM to 0.5 nM. Compound was incubated on cells for 1 hour at 37° C., 5% CO2.
Following the 1-hour incubation with compounds, cell lysates were prepared and phospho FGFR2 was measured using the HTRF Phospho-FGFR2 (TYR653/654) Detection Kits (CisBio, cat #64FGFR2Y6PEG). 8 μL of cell lysis buffer (4×) supplied with 1× Phospho and Total protein blocking reagent (CisBio, cat #64FGFR2Y6PEG, CisBio, cat #64KB1AAC) was then added to the wells. Cells were incubated with lysis buffer for 40 minutes at 4° C. under shaking conditions. Plates were centrifuged at 1500 rpm for 3 min and then 16 μL of cell lysate was transferred from the cell-culture plate to a small volume detection plate with the added premixed antibody solutions (4 μL) (CisBio, cat #64FGFR2Y6PEG). Plates were centrifuged at 1000 rpm for 1 min then incubated at 25° C. for 120 min, then overnight at 4° C. Plates were read on the En Vision multimode plate reader via HTRF dual wavelength detection. One hundred percent of control (POC) was determined using DMSO treated samples, and 0 POC was determined using the top concentration of a control compound. A 4-parameter logistic curve was fit to the POC values as a function of compound concentration to determine the IC50 value.

[1] = compound table after the examples, read-out: Enz FGFR2

T1 sequence (P21802 399-821 limits assumed): as the sequence (P21802 399-821 N549H limits assumed) above, with H151N counted along it

IC50 (FGFR2; Table 3, read-out: FGFR2 Enz) [nM]	IC50 (FGFR2; [1]) [nM]	IC50 (FGFR2 N549H) [nM]	IC50 (FGFR2 V564I) [nM]	IC50 (FGFR2 V564F) [nM]	IC50 (FGFR2-WT) [nM]	Structure (SMILES)
0.3	0.3	0.4	1.4	1	3.4	Cc1c(-c2cc(O[C@H](C)c3ccc(F)cn3)c3c(C#N)cnn3c2)cnn1[C@H]1CC[C@H](O)CC1 [Compound 1, 4-[(1R)-1-(5-fluoro-2-pyridyl)ethoxy]-6-[1-(4-hydroxycyclohexyl)-5-methyl-pyrazol-4-yl]pyrazolo[1,5-a]pyridine-3-carbonitrile]
0.16	0.16	0.05	0.24	0.14	2.5	C[C@@H](Oc1cc(-c2cnn(C3CCNCC3)c2)cn2ncc(C#N)c12)c1ccccn1 [Compound 2, (R)-6-(1-(piperidin-4-yl)-1H-pyrazol-4-yl)-4-(1-(pyridin-2-yl)ethoxy)pyrazolo[1,5-a]pyridine-3-carbonitrile]
21	21	–	–	–	128	C[C@H](Oc1cc(-c2cnn(C3CCNCC3)c2)cn2ncc(C#N)c12)c1ccccn1 [Compound 3, (S)-6-(1-(piperidin-4-yl)-1H-pyrazol-4-yl)-4-(1-(pyridin-2-yl)ethoxy)pyrazolo[1,5-a]pyridine-3-carbonitrile]
1	1	2	4	3	26	Cc1nn(C2CCNCC2)c(C)c1-c1cc(O[C@H](C)c2ccccn2)c2c(C#N)cnn2c1 [Compound 4, (R)-6-(3,5-dimethyl-1-(piperidin-4-yl)-1H-pyrazol-4-yl)-4-(1-(pyridin-2-yl)ethoxy)pyrazolo[1,5-a]pyridine-3-carbonitrile]
0.25	0.25	0.7	1.4	1	5	Cc1c(-c2cc(O[C@H](C)c3ccccn3)c3c(C#N)cnn3c2)cnn1C1CCNCC1 [Compound 5, (R)-6-(5-methyl-1-(piperidin-4-yl)-1H-pyrazol-4-yl)-4-(1-(pyridin-2-yl)ethoxy)pyrazolo[1,5-a]pyridine-3-carbonitrile]
1	1	2.4	4.3	4	15	Cc1nn(C2CCN(C)CC2)c(C)c1-c1cc(O[C@H](C)c2ccccn2)c2c(C#N)cnn2c1 [Compound 6, (R)-6-(3,5-dimethyl-1-(1-methylpiperidin-4-yl)-1H-pyrazol-4-yl)-4-(1-(pyridin-2-yl)ethoxy)pyrazolo[1,5-a]pyridine-3-carbonitrile]
0.3	0.3	0.5	1	1	6	Cc1c(-c2cc(O[C@H](C)c3ccccn3)c3c(C#N)cnn3c2)cnn1C1CCN(C)CC1 [Compound 7, (R)-6-(5-methyl-1-(1-methylpiperidin-4-yl)-1H-pyrazol-4-yl)-4-(1-(pyridin-2-yl)ethoxy)pyrazolo[1,5-a]pyridine-3-carbonitrile]
0.2	0.2	0.05	0.1	0.08	2	C[C@@H](Oc1cc(-c2cnn(C3CCNCC3)c2)cn2ncc(C#N)c12)c1ncccc1F [Compound 8, (R)-4-(1-(3-fluoropyridin-2-yl)ethoxy)-6-(1-(piperidin-4-yl)-1H-pyrazol-4-yl)pyrazolo[1,5-a]pyridine-3-carbonitrile]
0.3	0.3	0.5	1	1	7	Cc1c(-c2cc(O[C@H](C)c3ncccc3F)c3c(C#N)cnn3c2)cnn1C1CCNCC1 [Compound 9, (R)-4-(1-(3-fluoropyridin-2-yl)ethoxy)-6-(5-methyl-1-(piperidin-4-yl)-1H-pyrazol-4-yl)pyrazolo[1,5-a]pyridine-3-carbonitrile]
0.3	0.3	0.55	1	0.8	5	Cc1c(-c2cc(O[C@H](C)c3ncccc3F)c3c(C#N)cnn3c2)cnn1[C@H]1CCCNC1 [Compound 10, 4-((R)-1-(3-fluoropyridin-2-yl)ethoxy)-6-(5-methyl-1-((S)-piperidin-3-yl)-1H-pyrazol-4-yl)pyrazolo[1,5-a]pyridine-3-carbonitrile]
1.4	0.5	4.6	5.8	4.4	23	Cc1nn([C@H]2CCCNC2)c(C)c1-c1cc(O[C@H](C)c2ncccc2F)c2c(C#N)cnn2c1 [Compound 11, 6-(3,5-dimethyl-1-((S)-piperidin-3-yl)-1H-pyrazol-4-yl)-4-((R)-1-(3-fluoropyridin-2-yl)ethoxy)pyrazolo[1,5-a]pyridine-3-carbonitrile]
0.45	0.5	0.7	1.8	1.3	4.7	Cc1c(-c2cc(O[C@H](C)c3ccc(F)cn3)c3c(C#N)cnn3c2)cnn1[C@H]1CCCNC1 [Compound 12, 4-((R)-1-(5-fluoropyridin-2-yl)ethoxy)-6-(5-methyl-1-((S)-piperidin-3-yl)-1H-pyrazol-4-yl)pyrazolo[1,5-a]pyridine-3-carbonitrile]
0.5	0.6	0.6	2	1.6	3.8	CC(=O)N1CCC[C@H](n2ncc(-c3cc(O[C@H](C)c4ccc(F)cn4)c4c(C#N)cnn4c3)c2C)C1 [Compound 13, 6-(1-((S)-1-acetylpiperidin-3-yl)-5-methyl-1H-pyrazol-4-yl)-4-((R)-1-(5-fluoropyridin-2-yl)ethoxy)pyrazolo[1,5-a]pyridine-3-carbonitrile]
12.5	12.5	14	38	15	267	Cc1c(-c2cc(O[C@H](C)c3ccc(Cl)cn3)c3c(C#N)cnn3c2)cnn1[C@H]1CCCNC1 [Compound 14, 4-((R)-1-(5-chloropyridin-2-yl)ethoxy)-6-(5-methyl-1-((S)-piperidin-3-yl)-1H-pyrazol-4-yl)pyrazolo[1,5-a]pyridine-3-carbonitrile]
0.5	0.5	0.3	1	0.8	8	C[C@@H]1CN(c2ccc(-c3cc(O[C@H](C)c4ccc(F)cn4)c4c(C#N)cnn4c3)cn2)C[C@H](C)O1 [Compound 16, 6-(6-((2S,6R)-2,6-dimethylmorpholino)pyridin-3-yl)-4-((R)-1-(5-fluoropyridin-2-yl)ethoxy)pyrazolo[1,5-a]pyridine-3-carbonitrile]
0.6	0.6	0.5	1.7	1	3.4	Cc1c(-c2cc(O[C@H](C)c3ccc(F)cn3)c3c(C#N)cnn3c2)cnn1[C@H]1CCCN(C(=O)C(C)(C)O)C1 [Compound 17, 4-((R)-1-(5-fluoropyridin-2-yl)ethoxy)-6-(1-((S)-1-(2-hydroxy-2-methylpropanoyl)piperidin-3-yl)-5-methyl-1H-pyrazol-4-yl)pyrazolo[1,5-a]pyridine-3-carbonitrile]
